Here are results for ten compounds from ChEMBL document CHEMBL3991601, “The target landscape of clinical kinase drugs” (Science, 2017).

Calls of active or inactive are those of the source. For most assays here, no stated cut-off is given here; in the data, actives have a measured Kd and inactives only a lower limit.

By Kd is commonly meant the concentration at which binding is half-saturated.

Experiment [1] has as its target Mitogen-activated protein kinase kinase kinase 1 (Homo sapiens, UniProt Q13233).
The target of experiment [2] is T1, Exosome RNA helicase MTR4 (Homo sapiens, UniProt P42285).
T1 sequence (P42285 whole entry): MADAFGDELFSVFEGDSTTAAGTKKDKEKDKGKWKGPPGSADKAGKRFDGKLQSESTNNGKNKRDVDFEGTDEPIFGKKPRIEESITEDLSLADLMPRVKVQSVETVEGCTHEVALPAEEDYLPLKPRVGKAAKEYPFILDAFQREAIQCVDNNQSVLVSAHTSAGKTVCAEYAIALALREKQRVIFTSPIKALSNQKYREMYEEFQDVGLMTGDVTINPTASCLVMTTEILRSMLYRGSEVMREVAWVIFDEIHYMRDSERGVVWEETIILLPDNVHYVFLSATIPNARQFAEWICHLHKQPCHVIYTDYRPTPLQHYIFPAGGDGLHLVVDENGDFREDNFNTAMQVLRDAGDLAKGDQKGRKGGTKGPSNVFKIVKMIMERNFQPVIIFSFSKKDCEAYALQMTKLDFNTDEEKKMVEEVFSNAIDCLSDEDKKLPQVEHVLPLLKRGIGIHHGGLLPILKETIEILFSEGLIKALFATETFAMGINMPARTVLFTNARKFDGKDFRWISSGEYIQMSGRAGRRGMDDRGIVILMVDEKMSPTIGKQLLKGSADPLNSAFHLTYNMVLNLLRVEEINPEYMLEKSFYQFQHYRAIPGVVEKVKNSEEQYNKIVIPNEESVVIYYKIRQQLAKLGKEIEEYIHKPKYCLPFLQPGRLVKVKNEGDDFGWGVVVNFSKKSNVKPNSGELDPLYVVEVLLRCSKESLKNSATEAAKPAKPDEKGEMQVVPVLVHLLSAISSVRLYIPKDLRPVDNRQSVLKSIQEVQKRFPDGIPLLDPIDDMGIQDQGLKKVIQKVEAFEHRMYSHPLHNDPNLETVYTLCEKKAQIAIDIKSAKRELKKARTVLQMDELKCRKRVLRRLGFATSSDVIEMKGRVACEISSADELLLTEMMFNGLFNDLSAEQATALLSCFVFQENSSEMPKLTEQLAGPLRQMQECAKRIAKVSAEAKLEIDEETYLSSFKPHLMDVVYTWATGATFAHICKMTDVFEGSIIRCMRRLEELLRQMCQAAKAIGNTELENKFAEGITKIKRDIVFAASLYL

In experiment [3] the target is Insulin receptor (Homo sapiens, UniProt P06213).
Experiment [4] concerns the target RAC-gamma serine/threonine-protein kinase (Homo sapiens, UniProt Q9Y243).
Experiment [5] deals with NADH dehydrogenase [ubiquinone] 1 alpha subcomplex subunit 13 (Homo sapiens, UniProt Q9P0J0).
In experiment [6] the target is STE20-like serine/threonine-protein kinase (Homo sapiens, UniProt Q9H2G2).
In experiment [7] the target is Ephrin type-A receptor 5 (Homo sapiens, UniProt P54756).
The target of experiment [8] is Calcium/calmodulin-dependent protein kinase type II subunit delta (Homo sapiens, UniProt Q13557).
In experiment [9] the target is Myosin light chain kinase, smooth muscle (Homo sapiens, UniProt Q15746).
Experiment [10] concerns the target Dual specificity mitogen-activated protein kinase kinase 2 (Homo sapiens, UniProt P36507).
The target of experiment [11] is RAC-alpha serine/threonine-protein kinase (Homo sapiens, UniProt P31749).
Experiment [12] addresses Tyrosine-protein kinase ABL1 (Homo sapiens, UniProt P00519).
For experiment [13], the target named is BMP-2-inducible protein kinase (Homo sapiens, UniProt Q9NSY1).
For experiment [14], the target named is Cyclin-dependent kinase 5 (Homo sapiens, UniProt Q00535).

Sequence of STE20-like serine/threonine-protein kinase (Q9H2G2 whole entry): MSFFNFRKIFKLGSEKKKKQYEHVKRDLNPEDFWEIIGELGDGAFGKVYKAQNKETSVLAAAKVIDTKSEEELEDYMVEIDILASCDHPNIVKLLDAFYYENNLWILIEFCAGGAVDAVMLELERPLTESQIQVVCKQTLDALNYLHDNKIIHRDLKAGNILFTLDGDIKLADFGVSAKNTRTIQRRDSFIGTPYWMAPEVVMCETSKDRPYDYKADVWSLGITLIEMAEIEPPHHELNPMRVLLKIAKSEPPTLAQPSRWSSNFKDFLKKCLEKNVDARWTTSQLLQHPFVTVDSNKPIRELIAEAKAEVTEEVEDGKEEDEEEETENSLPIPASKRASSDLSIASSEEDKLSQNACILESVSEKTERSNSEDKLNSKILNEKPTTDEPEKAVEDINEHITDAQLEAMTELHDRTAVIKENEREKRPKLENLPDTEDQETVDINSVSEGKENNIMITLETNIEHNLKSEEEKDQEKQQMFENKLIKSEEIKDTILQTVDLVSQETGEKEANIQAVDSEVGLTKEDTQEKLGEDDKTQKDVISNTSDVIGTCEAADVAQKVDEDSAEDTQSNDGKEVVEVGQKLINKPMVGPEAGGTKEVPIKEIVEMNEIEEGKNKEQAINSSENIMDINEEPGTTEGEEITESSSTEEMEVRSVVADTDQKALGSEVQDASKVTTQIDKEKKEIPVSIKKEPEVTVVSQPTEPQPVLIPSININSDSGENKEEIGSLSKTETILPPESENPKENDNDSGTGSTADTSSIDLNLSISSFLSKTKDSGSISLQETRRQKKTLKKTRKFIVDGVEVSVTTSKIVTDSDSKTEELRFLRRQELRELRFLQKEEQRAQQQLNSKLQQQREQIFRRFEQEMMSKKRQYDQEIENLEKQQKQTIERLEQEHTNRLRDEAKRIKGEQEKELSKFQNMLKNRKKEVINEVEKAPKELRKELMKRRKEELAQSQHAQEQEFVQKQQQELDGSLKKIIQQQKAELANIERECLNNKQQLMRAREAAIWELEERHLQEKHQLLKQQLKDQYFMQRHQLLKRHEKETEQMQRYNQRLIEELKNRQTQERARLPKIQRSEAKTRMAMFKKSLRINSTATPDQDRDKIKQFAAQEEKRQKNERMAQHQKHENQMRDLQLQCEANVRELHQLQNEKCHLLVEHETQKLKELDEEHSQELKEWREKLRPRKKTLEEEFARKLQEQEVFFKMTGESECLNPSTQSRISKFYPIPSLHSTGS
Sequence of Insulin receptor (P06213 28-758 limits assumed): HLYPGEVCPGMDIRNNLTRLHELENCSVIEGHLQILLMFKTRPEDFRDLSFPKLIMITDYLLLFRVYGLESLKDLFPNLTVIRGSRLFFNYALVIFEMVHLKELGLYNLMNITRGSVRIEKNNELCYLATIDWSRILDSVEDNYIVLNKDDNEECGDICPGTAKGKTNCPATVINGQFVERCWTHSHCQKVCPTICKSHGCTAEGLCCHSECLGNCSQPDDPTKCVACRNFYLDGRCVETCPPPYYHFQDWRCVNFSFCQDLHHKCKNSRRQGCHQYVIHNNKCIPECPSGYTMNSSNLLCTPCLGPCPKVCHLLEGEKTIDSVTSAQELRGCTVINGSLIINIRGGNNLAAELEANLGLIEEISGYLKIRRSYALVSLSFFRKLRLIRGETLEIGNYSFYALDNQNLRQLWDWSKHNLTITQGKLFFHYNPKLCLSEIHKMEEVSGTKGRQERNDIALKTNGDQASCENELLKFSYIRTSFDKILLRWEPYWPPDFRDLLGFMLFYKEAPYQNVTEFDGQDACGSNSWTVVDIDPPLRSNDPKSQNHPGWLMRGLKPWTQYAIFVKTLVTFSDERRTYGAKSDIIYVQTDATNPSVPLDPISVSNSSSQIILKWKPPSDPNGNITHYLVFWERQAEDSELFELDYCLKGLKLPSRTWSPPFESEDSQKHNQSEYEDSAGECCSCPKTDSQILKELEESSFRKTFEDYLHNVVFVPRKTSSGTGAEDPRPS
Sequence of Insulin receptor (P06213 763-1382 limits assumed): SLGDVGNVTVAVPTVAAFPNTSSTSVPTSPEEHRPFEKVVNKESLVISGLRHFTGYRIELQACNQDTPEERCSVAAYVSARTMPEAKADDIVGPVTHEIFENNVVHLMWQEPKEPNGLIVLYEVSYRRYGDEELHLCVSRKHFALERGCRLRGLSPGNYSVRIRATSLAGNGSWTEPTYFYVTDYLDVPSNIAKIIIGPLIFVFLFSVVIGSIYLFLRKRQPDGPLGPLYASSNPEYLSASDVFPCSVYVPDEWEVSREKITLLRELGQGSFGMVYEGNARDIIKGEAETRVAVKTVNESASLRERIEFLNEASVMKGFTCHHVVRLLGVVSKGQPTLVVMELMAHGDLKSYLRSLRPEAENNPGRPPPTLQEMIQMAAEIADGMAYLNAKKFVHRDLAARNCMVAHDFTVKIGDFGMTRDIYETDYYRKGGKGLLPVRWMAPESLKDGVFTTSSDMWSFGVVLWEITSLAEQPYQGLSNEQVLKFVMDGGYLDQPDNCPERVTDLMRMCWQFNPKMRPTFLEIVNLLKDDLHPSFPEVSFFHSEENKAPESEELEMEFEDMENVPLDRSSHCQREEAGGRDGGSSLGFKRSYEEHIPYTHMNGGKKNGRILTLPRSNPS
Sequence of RAC-alpha serine/threonine-protein kinase (P31749 whole entry): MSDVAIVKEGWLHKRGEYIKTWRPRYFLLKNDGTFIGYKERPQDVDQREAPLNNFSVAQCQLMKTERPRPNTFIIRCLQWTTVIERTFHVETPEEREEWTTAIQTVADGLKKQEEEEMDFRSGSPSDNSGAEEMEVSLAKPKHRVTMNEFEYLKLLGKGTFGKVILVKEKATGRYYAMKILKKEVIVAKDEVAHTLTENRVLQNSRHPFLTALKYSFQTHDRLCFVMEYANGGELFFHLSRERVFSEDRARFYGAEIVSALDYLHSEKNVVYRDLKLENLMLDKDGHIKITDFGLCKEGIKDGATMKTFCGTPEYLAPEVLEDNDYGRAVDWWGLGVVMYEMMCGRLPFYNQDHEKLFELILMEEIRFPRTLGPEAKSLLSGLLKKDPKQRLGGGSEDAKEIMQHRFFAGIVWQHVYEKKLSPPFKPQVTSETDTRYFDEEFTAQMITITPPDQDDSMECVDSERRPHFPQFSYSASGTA
Sequence of Myosin light chain kinase, smooth muscle (Q15746 whole entry): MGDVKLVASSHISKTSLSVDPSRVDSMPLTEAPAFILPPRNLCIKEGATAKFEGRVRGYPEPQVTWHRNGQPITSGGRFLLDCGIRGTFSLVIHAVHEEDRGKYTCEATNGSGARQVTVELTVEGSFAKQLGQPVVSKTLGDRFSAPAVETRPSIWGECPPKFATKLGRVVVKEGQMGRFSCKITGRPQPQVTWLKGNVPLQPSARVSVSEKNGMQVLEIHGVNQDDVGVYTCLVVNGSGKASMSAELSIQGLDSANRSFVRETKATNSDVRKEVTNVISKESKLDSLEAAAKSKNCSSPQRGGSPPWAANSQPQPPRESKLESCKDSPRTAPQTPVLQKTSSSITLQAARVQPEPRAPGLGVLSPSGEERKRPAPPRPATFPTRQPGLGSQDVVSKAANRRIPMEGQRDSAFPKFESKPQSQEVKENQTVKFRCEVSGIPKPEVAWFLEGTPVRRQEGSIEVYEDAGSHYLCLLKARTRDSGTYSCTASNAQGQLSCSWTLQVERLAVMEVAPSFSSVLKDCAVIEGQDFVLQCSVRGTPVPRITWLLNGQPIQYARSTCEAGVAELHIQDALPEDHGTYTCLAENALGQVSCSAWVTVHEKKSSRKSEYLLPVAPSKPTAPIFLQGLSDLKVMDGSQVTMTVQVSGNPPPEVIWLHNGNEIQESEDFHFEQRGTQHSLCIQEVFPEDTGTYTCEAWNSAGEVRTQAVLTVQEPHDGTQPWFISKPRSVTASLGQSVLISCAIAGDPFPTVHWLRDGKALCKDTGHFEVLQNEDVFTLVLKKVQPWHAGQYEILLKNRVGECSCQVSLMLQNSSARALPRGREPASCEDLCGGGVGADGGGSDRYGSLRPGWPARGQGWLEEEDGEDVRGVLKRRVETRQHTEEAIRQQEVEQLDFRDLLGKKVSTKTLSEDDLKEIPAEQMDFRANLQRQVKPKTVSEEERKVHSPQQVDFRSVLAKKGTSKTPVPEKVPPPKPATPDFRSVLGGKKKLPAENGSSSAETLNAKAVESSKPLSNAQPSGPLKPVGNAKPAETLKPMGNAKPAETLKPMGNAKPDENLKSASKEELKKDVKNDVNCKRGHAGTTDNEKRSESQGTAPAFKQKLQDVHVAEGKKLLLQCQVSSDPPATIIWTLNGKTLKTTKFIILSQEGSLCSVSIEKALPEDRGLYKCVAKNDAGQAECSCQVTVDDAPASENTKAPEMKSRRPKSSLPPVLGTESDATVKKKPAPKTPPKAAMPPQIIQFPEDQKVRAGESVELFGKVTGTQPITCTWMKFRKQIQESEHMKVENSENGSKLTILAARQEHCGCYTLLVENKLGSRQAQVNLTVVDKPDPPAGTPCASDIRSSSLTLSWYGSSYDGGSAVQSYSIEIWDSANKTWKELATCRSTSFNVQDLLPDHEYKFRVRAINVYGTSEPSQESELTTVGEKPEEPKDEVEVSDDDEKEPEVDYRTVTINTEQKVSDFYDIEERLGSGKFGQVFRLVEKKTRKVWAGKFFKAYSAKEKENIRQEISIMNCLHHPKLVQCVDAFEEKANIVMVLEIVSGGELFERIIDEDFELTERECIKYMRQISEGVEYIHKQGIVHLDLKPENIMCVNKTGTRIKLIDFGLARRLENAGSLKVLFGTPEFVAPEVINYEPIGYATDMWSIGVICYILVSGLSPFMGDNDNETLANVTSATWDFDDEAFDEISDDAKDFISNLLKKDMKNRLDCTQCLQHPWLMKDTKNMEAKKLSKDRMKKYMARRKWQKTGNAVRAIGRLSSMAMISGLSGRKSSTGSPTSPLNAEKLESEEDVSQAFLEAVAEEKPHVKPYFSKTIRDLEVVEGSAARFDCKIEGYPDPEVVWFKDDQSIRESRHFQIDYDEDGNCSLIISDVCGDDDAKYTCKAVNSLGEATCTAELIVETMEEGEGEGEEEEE

Turning to `CNC(=O)c1cc(Oc2ccc(NC(=O)Nc3ccc(Cl)c(C(F)(F)F)c3)c(F)c2)ccn1` [REGORAFENIB], the Kd in experiment [1] is 0.465 µM (active); in [2], > 30 µM (inactive); in [3] it was > 30 µM (inactive); in experiment [4], > 30 µM (inactive); in experiment [5] it was > 30 µM (inactive); in experiment [6], > 30 µM (inactive). The Kd in experiment [7] is 1.12 µM; in experiment [8] it was > 30 µM (inactive); in experiment [9], > 30 µM (inactive); in experiment [10], > 30 µM (inactive); in experiment [11], > 30 µM (inactive); in experiment [12], 0.753 µM (active). Besides, the Kd in experiment [13] and in experiment [14] was > 30 µM (inactive) each time.
With `Cc1ccc(-n2nc(C(C)(C)C)cc2NC(=O)NCc2cc(F)ccc2Oc2ccc3c(cnn3CCO)c2)cc1` [PEXMETINIB], the Kd in experiment [1], in experiment [2], in [3], in experiment [4], in experiment [5] and in [6] was > 30 µM (inactive) each time. The Kd is > 30 µM (inactive) in experiment [7]; > 30 µM (inactive) in [8]; 0.081 µM in [9]; > 30 µM (inactive) in experiment [10]; > 30 µM (inactive) in experiment [11]; 0.211 µM (active) in experiment [12]. The Kd was > 30 µM (inactive) in experiment [13] and 4.16 µM (active) in experiment [14].
For the compound `CCN1CCN(Cc2ccc(-c3cc4c(N[C@H](C)c5ccccc5)ncnc4[nH]3)cc2)CC1` [AEE-788], the Kd is > 30 µM (inactive) in experiment [1]; > 30 µM (inactive) in experiment [2]; > 30 µM (inactive) in [3]; > 30 µM (inactive) in experiment [4]; > 30 µM (inactive) in [5]; 99.2 µM (active) in experiment [6]. In addition, the Kd in [7] is > 30 µM (inactive); in experiment [8], > 30 µM (inactive); in experiment [9], > 30 µM (inactive); in experiment [10], > 30 µM (inactive); in experiment [11], > 30 µM (inactive); in experiment [12], 1.09 µM (active). Further, the Kd in experiment [13] and in experiment [14] was > 30 µM (inactive) each time.
As to `Cc1ccc(NC(=O)c2ccc(CN3CC[C@H](N(C)C)C3)c(C(F)(F)F)c2)cc1Nc1nccc(-c2cncnc2)n1` [BAFETINIB], the Kd in experiment [1], in [2], in [3], in [4], in experiment [5] and in experiment [6] was > 30 µM (inactive) throughout. In addition, the Kd in [7] was 0.345 µM; in [8], > 30 µM (inactive); in [9], 1.21 µM; in experiment [10] it was > 30 µM (inactive); in experiment [11] it was > 30 µM (inactive); in experiment [12], 0.026 µM (active). In addition, the Kd in [13] and in [14] was > 30 µM (inactive) each time.
Regarding `CN(C)C(=O)c1cc2cnc(Nc3ccc(N4CCNCC4)cn3)nc2n1C1CCCC1` [RIBOCICLIB], the Kd in [1] was 12.5 µM (active); in [2], > 30 µM (inactive); in experiment [3], > 30 µM (inactive); in experiment [4], > 30 µM (inactive); in experiment [5] it was > 30 µM (inactive); in [6], > 30 µM (inactive). Further, the Kd in [7] was > 30 µM (inactive); in [8], 0.293 µM (active); in experiment [9], > 30 µM (inactive); in experiment [10], > 30 µM (inactive); in experiment [11], > 30 µM (inactive); in experiment [12], > 30 µM (inactive). The Kd in [13] and in experiment [14] was > 30 µM (inactive) each time.
Turning to `COCCNCc1ccc(-c2cc3nccc(Oc4ccc(NC(=S)NC(=O)Cc5ccc(F)cc5)cc4F)c3s2)nc1` [GLESATINIB], the Kd in experiment [1], in experiment [2], in experiment [3], in [4], in experiment [5] and in experiment [6] was > 30 µM (inactive) throughout. The Kd in experiment [7] was > 30 µM (inactive); in experiment [8], > 30 µM (inactive); in experiment [9] it was > 30 µM (inactive); in [10], > 30 µM (inactive); in experiment [11], > 30 µM (inactive); in [12], 0.241 µM (active). For the same compound, the Kd in experiment [13] and in experiment [14] was > 30 µM (inactive) each time.
On to `Cn1cc(-c2ccc3nnc(C(F)(F)c4ccc5ncccc5c4)n3n2)cn1` [JNJ-38877605], for which the Kd in [1], in experiment [2], in experiment [3], in experiment [4], in experiment [5] and in [6] was > 30 µM (inactive) in each case. Also, the Kd in experiment [7], in experiment [8], in experiment [9], in experiment [10], in [11] and in [12] was > 30 µM (inactive) throughout. Moreover, the Kd in experiment [13] and in [14] was > 30 µM (inactive) throughout.
On to `CC[C@H](Nc1ncnc2[nH]cnc12)c1nc2cccc(F)c2c(=O)n1-c1ccccc1` [IDELALISIB], for which the Kd in experiment [1], in [2], in experiment [3], in experiment [4], in experiment [5] and in experiment [6] was > 30 µM (inactive) in each case. Further, the Kd in [7], in experiment [8], in experiment [9], in experiment [10], in experiment [11] and in experiment [12] was > 30 µM (inactive) each time. Besides, the Kd in [13] and in experiment [14] was > 30 µM (inactive) throughout.
Regarding `CN1CC[C@@H](c2c(O)cc(O)c3c(=O)cc(-c4ccccc4Cl)oc23)[C@@H]1CO`, the Kd in [1] is > 30 µM (inactive); in [2] it was > 30 µM (inactive); in [3], > 30 µM (inactive); in experiment [4] it was 5.92 µM; in experiment [5] it was > 30 µM (inactive); in [6], > 30 µM (inactive). Besides, the Kd in experiment [7], in experiment [8], in [9], in experiment [10], in experiment [11] and in experiment [12] was > 30 µM (inactive) in each case. Also, the Kd in experiment [13] and in experiment [14] was > 30 µM (inactive) in each case.
With `CN1N=C(N)c2cn([C@@H]3O[C@H](COP(=O)(O)O)[C@@H](O)[C@H]3O)c3ncnc1c23` [TRICIRIBINE PHOSPHATE], the Kd in experiment [1], in [2], in experiment [3], in experiment [4], in [5] and in experiment [6] was > 30 µM (inactive) each time. The Kd in [7], in experiment [8], in experiment [9], in experiment [10], in experiment [11] and in experiment [12] was > 30 µM (inactive) each time. The Kd in experiment [13] and in experiment [14] was > 30 µM (inactive) each time.
